Experimental data as given in US8501755B2, “Tetrahydropyridothienopyrimidine compounds and methods of use thereof” (Bayer Intellectual Property GmbH, priority 2006, dated 2013).
pIC50: −log10 of the molar value.

Tests used:
Type in all cases: cell-based
A431 cells = assay: In vitro tumor cell proliferation assay (Cell Titer-Glo) in A431 cells; conditions: Homo sapiens, A-431, 72 h, A431 human epidermoid carcinoma overexpressing HER1; 72 hours exposure; read-out: IC50, activities in A431 cell lines
Text: (§1) The tumor cell proliferation assay used to test the compounds of the present invention involves a readout called Cell Titer-Glow® Luminescent Cell Viability Assay developed by Promega® (Cunningham, BA “A Growing Issue: Cell Proliferation Assays, Modern kits ease quantification of cell growth” The Scientist 2001, 15(13), 26, and Crouch, S P et al., “The use of ATP bioluminescence as a measure of cell proliferation and cytotoxicity” Journal of Immunological Methods 1993, 160, 81-88), that measures inhibition of cell proliferation. Generation of a luminescent signal corresponds to the amount of ATP present, which is directly proportional to the number of metabolically active (proliferating) cells. A431 cells [human epidermoid carcinoma, ATCC # HTB-20, overexpressing HER1 (EGFR, ErbB1)] and N87 [human gastric carcinoma, ATCC # CRL-1555, overexpressing HER2 (ErbB2) and HER1 (EGFR, ErbB1)] were plated at a density of 2.5×10^3 cells/well in 96 well black-clear bottom tissue culture plates in RPMI media with 10% Fetal Bovine Serum and incubated at 37° C. Twenty-four hours later, test compounds are added at a final concentration range from as high 100 μm to as low […] depend on the activities of the tested compounds in serial dilutions at a final DMSO concentration of 0.1%. Cells were incubated for 72 hours at 37° C. in complete growth media after addition of the test compound. After 72 hours of drug exposure, the plates were equilibrated to room temperature for approximately 30 min. Then, using a Promega Cell Titer Glo Luminescent® assay kit, lysis buffer containing 100 microliters of the enzyme luciferase and its substrate, luciferin mixture, was added to each well. The plates were mixed for 2 min on orbital shaker to ensure cell lysis and incubated for 10 min at room temperature to stabilize luminescence signal. The samples were read on VICTOR2 using Luminescence protocol, and analyzed with Analyze5 software to generate IC50 values.

H1975 cells = assay: In vitro tumor cell proliferation assay (Cell Titer-Glo) in H1975 cells; conditions: NCI-H1975; H1975 human NSCLC expressing mutant HER1 (L858R,T790M); 72 hours exposure; read-out: IC50, activities in H 1975 cell lines
Text: The tumor cell proliferation assay used to test the compounds of the present invention involves a readout called Cell Titer-Glow® Luminescent Cell Viability Assay developed by Promega® (Cunningham, BA “A Growing Issue: Cell Proliferation Assays, Modern kits ease quantification of cell growth” The Scientist 2001, 15(13), 26, and Crouch, S P et al., “The use of ATP bioluminescence as a measure of cell proliferation and cytotoxicity” Journal of Immunological Methods 1993, 160, 81-88), that measures inhibition of cell proliferation. Generation of a luminescent signal corresponds to the amount of ATP present, which is directly proportional to the number of metabolically active (proliferating) cells.
H1975 cells [human non small cell lung carcinoma, ATCC # CRL-5908, expressing mutant HER1 [(EGFR, ErbB1)(L858R,T790M] were plated at a density of 3×10^3 cells/well in 96 well black-clear bottom tissue culture plates in RPMI media with 10% Fetal Bovine Serum and incubated at 37° C. Twenty-four hours later, test compounds are added at a final concentration range from as high 10 uM to as low 64 pM depending on the activities of the tested compounds in serial dilutions at a final DMSO concentration of 0.1%. Cells were incubated for 72 hours at 37° C. in complete growth media after addition of the test compound. After 72 hours of drug exposure, the plates were equilibrated to room temperature for approximately 30 min. Then, using a Promega Cell Titer Glo Luminescent® assay kit, lysis buffer containing 100 microliters of the enzyme luciferase and its substrate, luciferin mixture, was added to each well. The plates were mixed for 2 min on orbital shaker to ensure cell lysis and incubated for 10 min at room temperature to stabilize luminescence signal. The samples were read on VICTOR2 using Luminescence protocol, and analyzed with Analyze5 software to generate IC50 values.

N87 = assay: In vitro tumor cell proliferation assay (Cell Titer-Glo) in N87 cells; conditions: N87 human gastric carcinoma overexpressing HER2 and HER1; 72 hours exposure; read-out: IC50, activities in N87 cell lines
Text: as §1

Row | pIC50 (A431 cells) | pIC50 (H1975 cells) | pIC50 (N87) | SMILES
1 | > 6.70 | > 6.70 | > 6.70 | CN(C/C=C/C(=O)N1CCc2c(sc3ncnc(Nc4ccc(Cl)c(Cl)c4)c23)C1)C(C)(C)C [Example 199, 7-{(2E)-4-[tert-butyl(methyl)amino]but-2-enoyl}-N-(3,4-dichlorophenyl)-5,6,7,8-tetrahydropyrido [4′,3′:4,5]thieno[2,3-d]pyrimidin-4-amine]
2 | > 6.70 | 6.00 to 6.70 | > 6.70 | C=CC(=O)N1CCc2c(sc3ncnc(Nc4ccc(F)c(Cl)c4)c23)C1 [Example 22, 7-acryloyl-N-(3-chloro-4-fluorophenyl)-5,6,7,8-tetrahydropyrido [4′,3′:4,5]thieno[2,3-d]pyrimidin-4-amine]
3 | > 6.70 | 6.00 to 6.70 | > 6.70 | O=C(/C=C/CN1CCOCC1)N1CCc2c(sc3ncnc(Nc4ccc5c(ccn5Cc5cccc(F)c5)c4)c23)C1 [Example 108, N-[1-(3-fluorobenzyl)-1H-indol-5-yl]-7-[(2E)-4-morpholin-4-ylbut-2-enoyl]-5,6,7,8-tetrahydropyrido [4′,3′:4,5]thieno[2,3-d]pyrimidin-4-amine]
4 | 5.00 to 6.00 | 5.00 to 6.00 | > 6.70 | O=C(/C=C/CCN1CCCC1)N1CCc2c(sc3ncnc(Nc4ccc(F)c(Cl)c4)c23)C1 [Example 152, N-(3-chloro-4-fluorophenyl)-7-[(2E)-5-pyrrolidin-1-ylpent-2-enoyl]-5,6,7,8-tetrahydropyrido [4′,3′:4,5]thieno[2,3-d]pyrimidin-4-amine]
5 | 5.00 to 6.00 | 5.00 to 6.00 | > 6.70 | O=C(/C=C/CN1CCc2ccccc21)N1CCc2c(sc3ncnc(Nc4ccc(OCc5ccccn5)c(Cl)c4)c23)C1 [Example 44, N-[3-chloro-4-(pyridin-2-ylmethoxy)phenyl]-7-[(2E)-4-(2,3-dihydro-1H-indol-1-yl)but-2-enoyl]-5,6,7,8-tetrahydropyndo [4′,3′:4,5]thieno[2,3-d]pyrimidin-4-amine]
6 | 6.00 to 6.70 | 6.00 to 6.70 | > 6.70 | CC1CC(C)CN(C/C=C/C(=O)N2CCc3c(sc4ncnc(Nc5ccc(OCc6ccccn6)c(Cl)c5)c34)C2)C1 (stereo not drawn) [Example 46, N-[3-chloro-4-(pyridin-2-ylmethoxy)phenyl]-7-[(2E)-4-(3,5-dimethylpiperidin-1-yl)but-2-enoyl]-5,6,7,8-tetrahydropyrido [4′,3′:4,5]thieno[2,3-d]pyrimidin-4-amine]
7 | 5.00 to 6.00 | 6.00 to 6.70 | > 6.70 | Cc1cccc(COc2ccc(Nc3ncnc4sc5c(c34)CCN(C(=O)/C=C/CN(C)C(C)C)C5)cc2Cl)n1 [Example 77, N-{3-chloro-4-[(6-methylpyridin-2-yl)methoxy]phenyl}-7-{(2E)-4-[isopropyl(methyl)amino]but-2-enoyl}-5,6,7,8-tetrahydropyrido [4′,3′:4,5]thieno[2,3-d]pyrimidin-4-amine]
8 | 6.00 to 6.70 | 6.00 to 6.70 | > 6.70 | CCN(CC)C/C=C/C(=O)N1CCc2c(sc3ncnc(Nc4ccc5c(cnn5Cc5ccccn5)c4)c23)C1 [Example 111, 7-[(2E)-4-(diethylamino)but-2-enoyl]-N-[1-(pyridin-2-ylmethyl)-1H-indazol-5-yl]-5,6,7,8-tetrahydropyrido [4′,3′:4,5]thieno[2,3-d]pyrimidin-4-amine]
9 | 6.00 to 6.70 | 6.00 to 6.70 | > 6.70 | O=C(/C=C/CN1CCCCCC1)N1CCc2c(sc3ncnc(Nc4ccc(OCc5ccccn5)c(Cl)c4)c23)C1 [Example 68, 7-[(2E)-4-azepan-1-ylbut-2-enoyl]-N-[3-chloro-4-(pyridin-2-ylmethoxy)phenyl]-5,6,7,8-tetrahydropyrido [4′,3′:4,5]thieno[2,3-d]pyrimidin-4-amine]
10 | 6.00 to 6.70 | 6.00 to 6.70 | > 6.70 | O=C(/C=C/CN1CCN(CCO)CC1)N1CCc2c(sc3ncnc(Nc4ccc(OCc5ccccn5)c(Cl)c4)c23)C1 [Example 62, 2-(4-{(2E)-4-[4-{[3-chloro-4-(pyridin-2-ylmethoxy)phenyl]amino}-5,8-dihydropyrido [4′,3′:4,5]thieno[2,3-d]pyrimidin-7(6H)-yl]-4-oxobut-2-en-1-yl}piperazin-1-yl)ethanol]
11 | 5.00 to 6.00 | 5.00 to 6.00 | > 6.70 | O=C(/C=C/CN1CCC(O)CC1)N1CCc2c(sc3ncnc(Nc4ccc(F)c(Cl)c4)c23)C1 [Example 58, 1-[(2E)-4-{4-[(3-chloro-4-fluorophenyl)amino]-5,8-dihydropyrido [4′,3′:4,5]thieno[2,3-d]pyrimidin-7(6H)-yl}-4-oxobut-2-en-1-yl]piperidin-4-ol]
12 | 6.00 to 6.70 | 6.00 to 6.70 | > 6.70 | O=C(/C=C/CN1CCCC(CO)C1)N1CCc2c(sc3ncnc(Nc4ccc(OCc5ccccn5)c(Cl)c4)c23)C1 (stereo not drawn) [Example 47, (1-{(2E)-4-[4-{[3-chloro-4-(pyridin-2-ylmethoxy)phenyl]amino}-5,8-dihydropyrido [4′,3′:4,5]thieno[2,3-d]pyrimidin-7(6H)-yl]-4-oxobut-2-en-1-yl}piperidin-3-yl)methanol]
13 | 6.00 to 6.70 | 6.00 to 6.70 | > 6.70 | CC1CCCCN1C/C=C/C(=O)N1CCc2c(sc3ncnc(Nc4ccc(OCc5ccccn5)c(Cl)c4)c23)C1 (stereo not drawn) [Example 64]
14 | 5.00 to 6.00 | 5.00 to 6.00 | > 6.70 | CN(C)CC/C=C/C(=O)N1CCc2c(sc3ncnc(Nc4ccc(F)c(Cl)c4)c23)C1 [Example 153]
15 | 5.00 to 6.00 | 5.00 to 6.00 | > 6.70 | O=C(C#CCN1CCOCC1)N1CCc2c(sc3ncnc(Nc4ccc(OCc5ccccn5)c(Cl)c4)c23)C1 [Example 136, N-[3-chloro-4-(pyridin-2-ylmethoxy)phenyl]-7-(4-morpholin-4-ylbut-2-ynoyl)-5,6,7,8-tetrahydropyrido [4′,3′:4,5]thieno[2,3-d]pyrimidin-4-amine]
16 | 6.00 to 6.70 | 6.00 to 6.70 | > 6.70 | CC1CCCCN1C/C=C/C(=O)N1CCc2c(sc3ncnc(Nc4ccc(F)c(Cl)c4)c23)C1 (stereo not drawn) [Example 56, N-(3-chloro-4-fluorophenyl)-7-[(2E)-4-(2-methylpiperidin-1-yl)but-2-enoyl]-5,6,7,8-tetrahydropyrido [4′,3′:4,5]thieno[2,3-d]pyrimidin-4-amine]
17 | 6.00 to 6.70 | > 6.70 | > 6.70 | CN(C)C/C=C/C(=O)N1CCc2c(sc3ncnc(Nc4ccc5c(ccn5Cc5ccccc5)c4)c23)C1 [Example 93, N-(1-benzyl-1H-indol-5-yl)-7-[(2E)-4-(dimethylamino)but-2-enoyl]-5,6,7,8-tetrahydropyrido [4′,3′:4,5]thieno[2,3-d]pyrimidin-4-amine]
18 | 6.00 to 6.70 | 6.00 to 6.70 | > 6.70 | O=C(/C=C/CN1CCCC1)N1CCc2c(sc3ncnc(Nc4ccc(Cl)c(Cl)c4)c23)C1 [Example 192, N-(3,4-dichlorophenyl)-7-[(2E)-4-pyrrolidin-1-ylbut-2-enoyl]-5,6,7,8-tetrahydropyrido [4′,3′:4,5]thieno[2,3-d]pyrimidin-4-amine]
19 | 5.00 to 6.00 | 5.00 to 6.00 | > 6.70 | Cc1cc(C)cc(Nc2ncnc3sc4c(c23)CCN(C(=O)/C=C/CN(C)C)C4)c1 [Example 167, 7-[(2E)-4-(dimethylamino)but-2-enoyl]-N-(3,5-dimethylphenyl)-5,6,7,8-tetrahydropyrido [4′,3′:4,5]thieno[2,3-d]pyrimidin-4-amine]
